Several values for one entry are separate records, joined by “and”; a condition that tells them apart may be missing. Identical values can stand only once. Like-named read-outs stand apart in the source and are kept apart here.
How the values were obtained:
[1] = tested on: tumor cell lines shown in Table 24; test: Example 2: combined use with tyrosine kinase inhibitor, cell growth inhibition test (IC50 ratio, CI); format: cell-based; settings: for Comprehensive Evaluation: combined use with Reference Example Compound 55
[2] = tested on: human acute T lymphoblastic leukemia CCRF-CEM cell lines; test: Cell growth inhibition 1 (CellTiter-Glo); format: cell-based; settings: culture with test compound 72 hours
[3] = SNU-16, Reference Example Compound 55:other compound 1:3.3, at ED50
[4] = SNU-16, Reference Example Compound 55:other compound 1:10, at ED50

Cc1cc(Nc2ncnc3ccc(NC4=NC(C)(C)CO4)cc23)ccc1Oc1ccn2ncnc2c1 [ARRY380]
CI ([1]; A431, Reference Example Compound 55:other compound 1:36 (only ratio calculated), at ED50): 0.34 | Comprehensive Evaluation ([1]; A431): Synergism (0.3-0.7)

CNC(=O)c1cc(Oc2ccc(NC(=O)Nc3ccc(Cl)c(C(F)(F)F)c3)c(F)c2)ccn1 [Regorafenib, regorafenib]
CI ([1]; SNU-16, Reference Example Compound 55:other compound 1:15, at ED50): 0.88 | CI ([1]; SNU-16, Reference Example Compound 55:other compound 1:45, at ED50): 1.06 | Comprehensive Evaluation ([1]; SNU-16): Additive (0.9-1.10)

Cc1nc(Nc2ncc(C(=O)Nc3c(C)cccc3Cl)s2)cc(N2CCN(CCO)CC2)n1 [Dasatinib, dasatinib]
CI ([1]; HCT116, Reference Example Compound 55:other compound 1:300, at ED50): 0.83 | CI ([1]; HCT116, Reference Example Compound 55:other compound 1:900, at ED50): 0.96 | Comprehensive Evaluation ([1]; HCT116): Additive (0.9-1.10)

CCOc1cc(F)cc(F)c1C#Cc1cn([C@@H]2O[C@H](CNS(N)(=O)=O)[C@@H](O)[C@H]2O)c2ncnc(N)c12 [Reference Example 35, 4-Amino-7-[(2R,3R,4S,5R)-3,4-dihydroxy-5-[(sulfamoylamino)methyl]tetrahydrofuran-2-yl]-5-[2-(2-ethoxy-4,6-difluoro-phenyl)ethynyl]pyrrolo[2,3-d]pyrimidine]
IC50 [2]: 0.002 µM

CCS(=O)(=O)c1cc(N2CC[C@@H](O)C2)cc(F)c1C#Cc1cn([C@@H]2O[C@H](CNS(N)(=O)=O)[C@@H](O)[C@H]2O)c2ncnc(N)c12 [Reference Example 72, 4-Amino-7-[(2R,3R,4S,5R)-3,4-dihydroxy-5-[(sulfamoylamino)methyl]tetrahydrofuran-2-yl]-5-[2-[2-ethylsulfonyl-6-fluoro-4-[(3R)-3-hydroxypyrrolidin-1-yl]phenyl]ethynyl]pyrrolo[2,3-d]pyrimidine]
IC50 [2]: 0.088 µM

CS(=O)(=O)CCNCc1ccc(-c2ccc3ncnc(Nc4ccc(OCc5cccc(F)c5)c(Cl)c4)c3c2)o1 [Lapatinib, lapatinib]
CI ([1]; A431, Reference Example Compound 55:other compound 1:10, at ED50): 0.15 | CI ([1]; A431, Reference Example Compound 55:other compound 1:30, at ED50): 0.19 | Comprehensive Evaluation ([1]; A431): Strong

Nc1ncnc2c1c(C#Cc1c(F)cc(N3CCCC(O)C3)cc1F)cn2[C@@H]1O[C@H](CNS(N)(=O)=O)[C@@H](O)[C@H]1O (stereo partly drawn) [Reference Example 38, 4-Amino-5-[2-[2,6-difluoro-4-(3-hydroxy-1-piperidyl)phenyl]ethynyl]-7-[(2R,3R,4S,5R)-3,4-dihydroxy-5-[(sulfamoylamino)methyl]tetrahydrofuran-2-yl]pyrrolo[2,3-d]pyrimidine]
IC50 [2]: 0.014 µM

C#Cc1cccc(Nc2ncnc3cc(OCCOC)c(OCCOC)cc23)c1 [Erlotinib, erlotinib]
CI [1]: 0.45 | CI ([1]; A549, Reference Example Compound 55:other compound 1:10, at ED50): 0.54 | Comprehensive Evaluation ([1]; A549): Synergism (0.3-0.7)

CCSc1cccc(F)c1C#Cc1cn([C@@H]2O[C@H](CNS(N)(=O)=O)[C@@H](O)[C@H]2O)c2ncnc(N)c12 [Reference Example 66, 4-Amino-7-[(2R,3R,4S,5R)-3,4-dihydroxy-5-[(sulfamoylamino)methyl]tetrahydrofuran-2-yl]-5-[2-(2-ethylsulfanyl-6-fluoro-phenyl)ethynyl]pyrrolo[2,3-d]pyrimidine]
IC50 [2]: 0.0043 µM

CCOc1cc(N2CCOCC2)cc(F)c1C#Cc1cn([C@@H]2O[C@H](CNS(N)(=O)=O)[C@@H](O)[C@H]2O)c2ncnc(N)c12 [Reference Example 34, 4-[4-[2-[4-Amino-7-[(2R,3R,4S,5R)-3,4-dihydroxy-5-[(sulfamoylamino)methyl]tetrahydrofuran-2-yl]pyrrolo[2,3-d]pyrimidin-5-yl]ethynyl]-3-ethoxy-5-fluoro-phenyl]morpholine]
IC50 [2]: 0.0061 µM

C=CC(=O)Nc1cc(Nc2nccc(-c3cn(C)c4ccccc34)n2)c(OC)cc1N(C)CCN(C)C [Osimertinib, osimertinib]
CI ([1]; NCI-H1975, Reference Example Compound 55:other compound 1:0.01, at ED50): 0.96 | CI ([1]; NCI-H1975, Reference Example Compound 55:other compound 1:0.03, at ED50): 0.99 | Comprehensive Evaluation ([1]; NCI-H1975): Additive (0.9-1.10)

Nc1ncnc2c1c(C#Cc1c(F)cc(NCCO)cc1F)cn2[C@@H]1O[C@H](CNS(N)(=O)=O)[C@@H](O)[C@H]1O [Reference Example 32, 4-Amino-5-[2-[2,6-difluoro-4-(2-hydroxyethylamino)phenyl]ethynyl]-7-[(2R,3R,4S,5R)-3,4-dihydroxy-5-[(sulfamoylamino)methyl]tetrahydrofuran-2-yl]pyrrolo[2,3-d]pyrimidine]
IC50 [2]: 2.5 µM

CCS(=O)(=O)c1cc(N2CCCC2)cc(F)c1C#Cc1cn([C@@H]2O[C@H](CNS(N)(=O)=O)[C@@H](O)[C@H]2O)c2ncnc(N)c12 [Reference Example 70, 4-Amino-7-[(2R,3R,4S,5R)-3,4-dihydroxy-5-[(sulfamoylamino)methyl]tetrahydrofuran-2-yl]-5-[2-(2-ethylsulfonyl-6-fluoro-4-pyrrolidin-1-yl-phenyl)ethynyl]pyrrolo[2,3-d]pyrimidine]
IC50 [2]: 0.015 µM

COc1cc2ncnc(Nc3ccc(F)c(Cl)c3)c2cc1OCCCN1CCOCC1 [Gefitinib, gefitinib]
CI ([1]; A431, Reference Example Compound 55:other compound 1:5, at ED50): 0.33 | CI ([1]; A431, Reference Example Compound 55:other compound 1:15, at ED50): 0.32 | Comprehensive Evaluation ([1]; A431): Synergism (0.3-0.7)

COc1cc2nccc(Oc3ccc(NC(=O)NC4CC4)c(Cl)c3)c2cc1C(N)=O [Lenvatinib, lenvatinib]
CI [1, 3]: 0.44 | CI [1, 4]: 0.63 | Comprehensive Evaluation ([1]; SNU-16): Synergism (0.3-0.7)

N#Cc1cccc(F)c1C#Cc1cn([C@@H]2O[C@H](CNS(N)(=O)=O)[C@@H](O)[C@H]2O)c2ncnc(N)c12 [Reference Example 85, 4-Amino-5-[2-(2-cyano-6-fluoro-phenyl)ethynyl]-7-[(2R,3R,4S,5R)-3,4-dihydroxy-5-[(sulfamoylamino)methyl]tetrahydrofuran-2-yl]pyrrolo[2,3-d]pyrimidine]
IC50 [2]: 0.038 µM

Cc1ccc(NC(=O)c2ccc(CN3CCN(C)CC3)cc2)cc1Nc1nccc(-c2cccnc2)n1 [Imatinib, imatinib]
CI [1]: 0.31 and 0.35 | Comprehensive Evaluation ([1]; A549): Synergism (0.3-0.7)

Nc1ncnc2c1c(C#CCc1c(F)cccc1F)cn2[C@@H]1O[C@H](CNS(N)(=O)=O)[C@@H](O)[C@H]1O [Reference Example 31, 4-Amino-5-[3-(2,6-difluorophenyl)prop-1-ynyl]-7-[(2R,3R,4S,5R)-3,4-dihydroxy-5-[(sulfamoylamino)methyl]tetrahydrofuran-2-yl]pyrrolo[2,3-d]pyrimidine]
IC50 [2]: 0.6 µM

C[C@@H](Oc1cc(-c2cnn(C3CCNCC3)c2)cnc1N)c1c(Cl)ccc(F)c1Cl [Crizotinib, crizotinib]
CI ([1]; MM.1S, Reference Example Compound 55:other compound 1:37, at ED50): 0.87 | CI ([1]; MM.1S, Reference Example Compound 55:other compound 1:111, at ED50): 0.74 | Comprehensive Evaluation ([1]; MM.1S): Slight

Nc1ncnc2c1c(C#Cc1c(F)cccc1S(N)(=O)=O)cn2[C@@H]1O[C@H](CNS(N)(=O)=O)[C@@H](O)[C@H]1O [Reference Example 84, 2-[2-[4-Amino-7-[(2R,3R,4S,5R)-3,4-dihydroxy-5-[(sulfamoylamino)methyl]tetrahydrofuran-2-yl]pyrrolo[2,3-d]pyrimidin-5-yl]ethynyl]-3-fluoro-benzenesulfonamide]
IC50 [2]: 0.23 µM

CC1(COc2ccc3c(c2)ncn3-c2ccc3cccc(N4CCC(N)CC4)c3n2)COC1 [Crenolanib, crenolanib]
CI ([1]; MV4-11, Reference Example Compound 55:other compound 1:3.7, at ED50): 0.91 | CI ([1]; MV4-11, Reference Example Compound 55:other compound 1:11, at ED50): 0.83 | Comprehensive Evaluation ([1]; MV4-11): Additive (0.9-1.10)

CCc1cc2c(cc1N1CCC(N3CCOCC3)CC1)C(C)(C)c1[nH]c3cc(C#N)ccc3c1C2=O [Alectinib, alectinib]
CI ([1]; MM.1S, Reference Example Compound 55:other compound 1:3000, at ED50): 0.58 | CI ([1]; MM.1S, Reference Example Compound 55:other compound 1:9000, at ED50): 0.59 | Comprehensive Evaluation ([1]; MM.1S): Synergism (0.3-0.7)

CCN(CC)CCNC(=O)c1c(C)[nH]c(/C=C2\C(=O)Nc3ccc(F)cc32)c1C [Sunitinib, sunitinib]
CI [1, 3]: 0.86 | CI [1, 4]: 0.91 | Comprehensive Evaluation ([1]; SNU-16): Additive (0.9-1.10)

Cc1ccc(Nc2nccc(N(C)c3ccc4c(C)n(C)nc4c3)n2)cc1S(N)(=O)=O [Pazopanib, pazopanib]
CI ([1]; SNU-16, Reference Example Compound 55:other compound 1:30, at ED50): 0.71 | CI ([1]; SNU-16, Reference Example Compound 55:other compound 1:90, at ED50): 0.52

Cc1ccc(NC(=O)c2ccc(CN3CCN(C)CC3)cc2)cc1Nc1nc(-c2cccnc2)cs1 [Masitinib, masitinib]
CI ([1]; MOLT-4, Reference Example Compound 55:other compound 1:33, at ED50): 0.31 | CI ([1]; MOLT-4, Reference Example Compound 55:other compound 1:100, at ED50): 0.20 | Comprehensive Evaluation ([1]; MOLT-4): Synergism (0.3-0.7)

N#CC[C@H](C1CCCC1)n1cc(-c2ncnc3[nH]ccc23)cn1 [Ruxolitinib, ruxolitinib]
CI [1]: 0.82

CN(C)C/C=C/C(=O)Nc1cc2c(Nc3ccc(F)c(Cl)c3)ncnc2cc1O[C@H]1CCOC1 [Afatinib, afatinib]
CI ([1]; A549, Reference Example Compound 55:other compound 1:1.7, at ED50): 0.70 | CI ([1]; A549, Reference Example Compound 55:other compound 1:5, at ED50): 0.48 | Comprehensive Evaluation ([1]; A549): Synergism (0.3-0.7)

Cc1ccc(C(=O)Nc2ccc(CN3CCN(C)CC3)c(C(F)(F)F)c2)cc1C#Cc1cnc2cccnn12 [Ponatinib, ponatinib]
CI [1]: 0.46 and 0.36

CC(C)(C)c1cc(NC(=O)Nc2ccc(-c3cn4c(n3)sc3cc(OCCN5CCOCC5)ccc34)cc2)no1 [Quizartinib, quizartinib]
CI ([1]; MOLT-4, Reference Example Compound 55:other compound 1:111, at ED50): 0.39 | CI ([1]; MOLT-4, Reference Example Compound 55:other compound 1:333, at ED50): 0.44 | Comprehensive Evaluation ([1]; MOLT-4): Synergism (0.3-0.7)

From patent publication US20190010158A1, “ANTITUMOR EFFECT POTENTIATOR COMPRISING PYRROLOPYRIMIDINE COMPOUND” (TAIHO PHARMACEUTICAL CO., LTD, priority 2015, published 2019)
